Measurements from PMC10343225, “Investigating the Vital Role of the Identified Abietic Acid from Helianthus annuus L. Calathide Extract against Hyperuricemia via Human Embryonic Kidney 293T Cell Model” (Molecules, 2023).
pIC50: −log10 of the molar value.

Molecular target: T1, xanthine oxidase (XO) (Bos taurus, UniProt P80457)
T1 construct: gene XDH
Assay: spectrophotometric xanthine oxidase assay, uric acid formation at […] nm (XO from Roche)
Format: biochemical

T1 sequence (P80457 2-1332): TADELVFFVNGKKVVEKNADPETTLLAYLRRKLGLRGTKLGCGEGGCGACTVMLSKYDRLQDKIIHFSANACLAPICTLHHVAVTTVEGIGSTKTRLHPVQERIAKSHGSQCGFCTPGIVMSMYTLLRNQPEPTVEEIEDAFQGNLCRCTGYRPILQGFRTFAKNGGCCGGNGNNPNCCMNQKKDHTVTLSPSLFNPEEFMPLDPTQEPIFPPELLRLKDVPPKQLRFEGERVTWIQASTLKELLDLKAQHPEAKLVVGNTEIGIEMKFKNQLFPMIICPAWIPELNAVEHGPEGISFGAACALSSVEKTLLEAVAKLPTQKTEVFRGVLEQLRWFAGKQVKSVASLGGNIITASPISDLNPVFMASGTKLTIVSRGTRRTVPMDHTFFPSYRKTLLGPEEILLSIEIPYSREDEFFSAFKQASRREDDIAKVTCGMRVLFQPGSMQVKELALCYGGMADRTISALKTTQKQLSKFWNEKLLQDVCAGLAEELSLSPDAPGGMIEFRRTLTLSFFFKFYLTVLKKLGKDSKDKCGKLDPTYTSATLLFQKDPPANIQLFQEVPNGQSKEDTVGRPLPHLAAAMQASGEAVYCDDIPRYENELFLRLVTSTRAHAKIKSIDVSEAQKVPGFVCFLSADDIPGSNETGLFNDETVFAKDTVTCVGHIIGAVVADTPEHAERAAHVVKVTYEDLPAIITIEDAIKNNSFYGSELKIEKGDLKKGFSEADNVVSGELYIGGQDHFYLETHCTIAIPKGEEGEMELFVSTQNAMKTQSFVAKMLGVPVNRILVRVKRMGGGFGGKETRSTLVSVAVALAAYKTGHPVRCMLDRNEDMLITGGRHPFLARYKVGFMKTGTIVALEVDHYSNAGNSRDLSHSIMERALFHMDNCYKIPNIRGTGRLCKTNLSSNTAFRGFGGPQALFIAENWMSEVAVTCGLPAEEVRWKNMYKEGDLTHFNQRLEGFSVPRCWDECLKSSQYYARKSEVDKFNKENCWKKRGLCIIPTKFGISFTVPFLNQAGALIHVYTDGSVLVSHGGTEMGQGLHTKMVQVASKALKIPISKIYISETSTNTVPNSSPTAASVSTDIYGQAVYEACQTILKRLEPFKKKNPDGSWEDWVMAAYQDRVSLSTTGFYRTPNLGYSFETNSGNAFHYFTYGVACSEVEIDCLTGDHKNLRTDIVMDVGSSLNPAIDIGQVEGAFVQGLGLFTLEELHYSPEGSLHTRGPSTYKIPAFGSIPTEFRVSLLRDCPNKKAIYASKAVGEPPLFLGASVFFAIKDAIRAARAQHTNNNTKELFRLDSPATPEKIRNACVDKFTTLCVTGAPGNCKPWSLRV

## CC(C)C1=CC2=CC[C@@H]3[C@](C)(CCC[C@@]3(C)C(=O)O)[C@H]2CC1 [AA, abietic acid]
  pIC50: 4.97
